According to patent US7745651B2, “Cationic lipids and methods of use” (Protiva Biotherapeutics, Inc., priority 2004, dated 2010):

Assay: 31P-NMR of DPPS/cationic lipid MLV, bilayer-to-hexagonal phase transition temperature
Assay type: physicochemical
Settings: MLV of DPPS and cationic lipid 1:1 molar ratio, 10 mM sodium citrate pH 4
Experimental: ^31P Nuclear Magnetic Resonance Spectroscopy: Multilamellar vesicles (MLV) were prepared comprising DPPS and cationic lipid at a molar ratio of 1:1. This was accomplished by drying the lipids from chloroform solution, transferring to 10 mm NMR tubes, and hydrating in 1.5 mL of 10 mM sodium citrate, pH 4. Free induction decays (FIDs) corresponding to 1000 scans were obtained with a 3.0 μs, 60o pulse with a 1 s interpulse delay and a spectral width of 25000 Hz. A gated two-level proton decoupling was used to ensure sufficient decoupling with minimum sample heating. An exponential multiplication corresponding to 50 Hz of line broadening was applied to the FIDs prior to Fourier transformation. The sample temperature (+/−1° C.) was regulated using a Bruker B-VT1000 variable temperature unit. Chemical shifts were referenced to 85% phosphoric acid as an external standard.
The significance of saturation with respect to phase transition temperature was investigated using ^31P-NMR. […] By determining the temperature at which the conversion occurs, the relative ease with which the lipids form the HII phase, their ‘fusogenicity’, can be determined.
MLV were prepared using the anionic lipid DPPS in a 1:1 molar ratio with each cationic lipid. The ^31P-NMR spectra of the MLV were measured at various temperatures. […]

Compound: CCCCCCCCCCCCCCCCCC[N+](C)(C)CCCCCCCCCCCCCCCCCC [DSDMA, Distearyldimethylammonium]
- bilayer-to-hexagonal (HII) phase transition temperature (Tc): > 50 °C
